# Test system: HCT 116 cells
# Experiment: Viability assay HCT 116 cells (CellTiter-Glo)
# Assay type: cell-based
# Settings: Homo sapiens, HCT-116, 120 h, HCT 116 human colon carcinoma cells, 5 days incubation, CellTiter-Glo luminescence
# How it was run: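 Human colon carcinoma cells seeded at 1000/well in RPMI 1640 with GlutaMAX, FCS and Pen/Strep, incubated 24 h at 37 °C, then treated with 10 concentrations (30 μM to 0.0015 μM, 1:3). After 5 days, viability read by CellTiter-Glo ATP luminescence.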
row,Compound,IC50 [nM]
1,"CC1(C)C(=O)N(CC(=O)NO)c2cc3[nH]c(-c4n[nH]c5ccccc45)nc3cc21 [Example 49, N-Hydroxy-2-[2-(1H-indazol-3-yl)-7,7-dimethyl-6-oxo-6,7-dihydro-3H-imidazo[4,5-f]indol-5-yl]-acetamide]",1000 to 10000
2,"CCOC(=O)CN1C(=O)C(C)(C)c2cc3nc(-c4n[nH]c5ccccc45)[nH]c3cc21 [Example 23, [2-(1H-Indazol-3-yl)-7,7-dimethyl-6-oxo-6,7-dihydro-3H-imidazo[4,5-f]indol-5-yl]-acetic acid ethyl ester]",100 to 1000
3,"CC1(C)C(=O)N(Cc2ccccc2)c2cc3[nH]c(-c4n[nH]c5ccccc45)nc3cc21 [Example 26, 5-Benzyl-2-(1H-indazol-3-yl)-7,7-dimethyl-5,7-dihydro-3H-imidazo[4,5-f]indol-6-one]",100 to 1000
4,"CC1(C)C(=O)N(CCN)c2cc3[nH]c(-c4n[nH]c5ccccc45)nc3cc21 [Example 52, 5-(2-Amino-ethyl)-2-(1H-indazol-3-yl)-7,7-dimethyl-5,7-dihydro-3H-imidazo[4,5-f]indol-6-one]",100 to 1000
5,"CC1(C)C(=O)Nc2cc3[nH]c(-c4n[nH]c5ccccc45)nc3cc21 [Example 8, 2-(1H-indazol-3-yl)-7,7-dimethyl-5,7-dihydro-3H-imidazo[4,5-f]indol-6-one]",100 to 1000
6,"C=CCCN1C(=O)C(C)(C)c2cc3nc(-c4n[nH]c5ccccc45)[nH]c3cc21 [Example 15, 5-But-3-enyl-2-(1H-indazol-3-yl)-7,7-dimethyl-5,7-dihydro-3H-imidazo[4,5-f]indol-6-one]",100 to 1000
7,"CC1(C)C(=O)N(Cc2ccc(S(C)(=O)=O)cc2)c2cc3[nH]c(-c4n[nH]c5ccccc45)nc3cc21 [Example 27, 2-(1H-Indazol-3-yl)-5-(4-methanesulfonyl-benzyl)-7,7-dimethyl-5,7-dihydro-3H-imidazol[4,5-f]indol-6-one]",100 to 1000
8,"CC1(C)C(=O)N(CC(=O)O)c2cc3[nH]c(-c4n[nH]c5ccccc45)nc3cc21 [Example 36, [2-(1H-Indazol-3-yl)-7,7-dimethyl-6-oxo-6,7-dihydro-3H-imidazo[4,5-f]indol-5-yl]-acetic acid]",1000 to 10000
9,"O=C1Nc2cc3nc(-c4n[nH]c5ccccc45)[nH]c3cc2C12CCCC2 [Example 9, 2-(1H-indazol-3-yl)-spiro[7,7-cyclopentan-5,7-dihydro-3H-imidazo[4,5-f]indol]-6-one]",100 to 1000
10,"CC1(C)C(=O)N(CC(N)=O)c2cc3[nH]c(-c4n[nH]c5ccccc45)nc3cc21 [Example 37, 2-[2-(1H-Indazol-3-yl)-7,7-dimethyl-6-oxo-6,7-dihydro-3H-imidazo[4,5-f]indol-5-yl]-acetamide]",100 to 1000
11,"CCN1C(=O)C(C)(C)c2cc3nc(-c4n[nH]c5ccccc45)[nH]c3cc21 [Example 3, 5-Ethyl-2-(1H-indazol-3-yl)-7,7-dimethyl-5,7-dihydro-3H-imidazo[4,5-f]indol-6-one]",100 to 1000
12,"CN(C)CCCN1C(=O)C(C)(C)c2cc3nc(-c4n[nH]c5ccccc45)[nH]c3cc21 [Example 21, 5-(3-Dimethylamino-propyl)-2-(1H-indazol-3-yl)-7,7-dimethyl-5,7-dihydro-3H-imidazo[4,5-f]indol-6-one]",100 to 1000

# Further lines, results first:
row,IC50 [nM],Compound
1,180,"C=CCN1C(=O)C(C)(C)c2cc3nc(-c4n[nH]c5ccccc45)[nH]c3cc21 [Example 2, 5-Allyl-2-(1H-indazol-3-yl)-7,7-dimethyl-5,7-dihydro-3H-imidazo[4,5-f]indol-6-one]"
2,100 to 1000,"COCCOCCN1C(=O)C(C)(C)c2cc3nc(-c4n[nH]c5ccccc45)[nH]c3cc21 [Example 17, 2-(1H-Indazol-3-yl)-5-[2-(2-methoxy-ethoxy)-ethyl]-7,7-dimethyl-5,7-dihydro-3H-imidazo[4,5-f]indol-6-one]"
3,100 to 1000,"CC1(C)C(=O)N(CC(O)CO)c2cc3[nH]c(-c4n[nH]c5ccccc45)nc3cc21 (stereo not drawn) [Example 35, 5-(2,3-Dihydroxy-propyl)-2-(1H-indazol-3-yl)-7,7-dimethyl-5,7-dihydro-3H-imidazo [4,5-f]indol-6-one]"
4,100 to 1000,"CC1(C)C(=O)N(CC(=O)Nc2ccccc2)c2cc3[nH]c(-c4n[nH]c5ccccc45)nc3cc21 [Example 43, 2-[2-(1H-Indazol-3-yl)-7,7-dimethyl-6-oxo-6,7-dihydro-3H-imidazo[4,5-f]indol-5-yl]-N-phenyl-acetamide]"
5,100 to 1000,"CC1(C)C(=O)N(CCO[Si](C)(C)C(C)(C)C)c2cc3[nH]c(-c4n[nH]c5ccccc45)nc3cc21 [Example 28, 5-[2-(tert-Butyl-dimethyl-silanyloxy)-ethyl]-2-(1H-indazol-3-yl)-7,7-dimethyl-5,7-dihydro-3H-imidazo[4,5-f]indol-6-one]"
6,100 to 1000,"CCCN1C(=O)C(C)(C)c2cc3nc(-c4n[nH]c5ccccc45)[nH]c3cc21 [Example 5, 2-(1H-indazol-3-yl)-7,7-dimethyl-5-propyl-5,7-dihydro-3H-imidazo[4,5-f]indol-6-one]"
7,100 to 1000,"CC1(C)C(=O)N(CCCN2CCCCC2)c2cc3[nH]c(-c4n[nH]c5ccccc45)nc3cc21 [Example 19, 2-(1H-Indazol-3-yl)-7,7-dimethyl-5-(3-piperidin-1-yl-propyl)-5,7-dihydro-3H-imidazo[4,5-f]indol-6-one]"
8,100 to 1000,"CC1(C)C(=O)N(CCO)c2cc3[nH]c(-c4n[nH]c5ccccc45)nc3cc21 [Example 34, 5-(2-Hydroxy-ethyl)-2-(1H-indazol-3-yl)-7,7-dimethyl-5,7-dihydro-3H-imidazo[4,5-f]indol-6-one]"
9,100 to 1000,"CC(C)N1C(=O)C(C)(C)c2cc3nc(-c4n[nH]c5ccccc45)[nH]c3cc21 [Example 6, 2-(1H-indazol-3-yl)-5-isopropyl-7,7-dimethyl-5,7-dihydro-3H-imidazo[4,5-f]indol-6-one]"
10,100 to 1000,"CC1C(=O)Nc2cc3[nH]c(-c4n[nH]c5ccccc45)nc3cc21 (stereo not drawn) [Example 11, 2-(1H-Indazol-3-yl)-7-methyl-5,7-dihydro-3H-imidazo[4,5-f]indol-6-one]"
11,100 to 1000,"CC1(C)C(=O)N(CC(=O)NCc2ccccc2)c2cc3[nH]c(-c4n[nH]c5ccccc45)nc3cc21 [Example 39, N-Benzyl-2-[2-(1H-indazol-3-yl)-7,7-dimethyl-6-oxo-6,7-dihydro-3H-imidazo[4,5-f]indol-5-yl]-acetamide]"
12,100 to 1000,"CC1(C)C(=O)N(CC(=O)N2CCOCC2)c2cc3[nH]c(-c4n[nH]c5ccccc45)nc3cc21 [Example 40, 2-(1H-Indazol-3-yl)-7,7-dimethyl-5-(2-morpholin-4-yl-2-oxo-ethyl)-5,7-dihydro-3H-imidazo[4,5-f]indol-6-one]"
13,100 to 1000,"CC1(C)C(=O)N(CC#N)c2cc3[nH]c(-c4n[nH]c5ccccc45)nc3cc21 [Example 24, [2-(1H-Indazol-3-yl)-7,7-dimethyl-6-oxo-6,7-dihydro-3H-imidazo[4,5-f]indol-5-yl]-acetonitrile]"
14,100 to 1000,"CCC1C(=O)Nc2cc3nc(-c4[nH]nc5ccccc45)[nH]c3cc21 (stereo not drawn) [Example 13, 7-Ethyl-2-(1H-indazol-3-yl)-5,7-dihydro-3H-imidazo[4,5-f]indol-6-one]"
15,280,"CC1(C)C(=O)N(CCCN2CCOCC2)c2cc3[nH]c(-c4n[nH]c5ccccc45)nc3cc21 [Example 7, 2-(1H-indazol-3-yl)-7,7-dimethyl-5-(3-morpholin-4-yl-propyl)-5,7-dihydro-3H-imidazo[4,5-f]indol-6-one]"

# From patent US20060142247A1, “Tricyclic heterocycles” (priority 2004, published 2006)
